Data reported in US9402875B2, “Amidated dopamine neuron stimulating peptide restoration of mitochondrial activity” (University of Kentucky Research Foundation, priority 2006, dated 2016).
Ends that are not written are not given here.

Experiments:
[1] = target: T1, glyceraldehyde-3-phosphate dehydrogenase (GAPDH) (Rattus norvegicus, UniProt P04797); test: DNSP-11 pull-down with substantia nigra homogenate, 2D-PAGE and MALDI-TOF MS; format: binding
T1 construct: homogenate from isolated substantia nigra of normal young Fischer 344 rats; from tissue; host or cells: substantia nigra of Fischer 344 rats (cytosolic and membrane fractions)
Procedure: DNSP-11 Pull-down analysis: The F344 substantia nigra was homogenized in homogenization buffer (modified from York et al. (2005) FASED J. 19: 1202-4 with 20 mM HEPES, pH 7.4) and cytosolic fraction (supernatant) collected after 30 minutes at 100,000 g. 50 μg of bDNSP-11 was incubated with fraction for 15 minutes on ice. Sample was added to streptavidin magnetic beads (New England Biolabs), pelleted, and washed four times in homogenization buffer. Bound proteins were eluted by Solubilization/Rehydration Solution (7 M Urea, 2 M Thiourea, 50 mM DTT, 4% CHAPS, 1% NP-40, 0.2% Carrier ampholytes, 0.0002% Bromophenol blue), and analyzed by 2D-PAGE and MALDI-TOF MS.
In order to identify the interactions of DNSP-11 with protein partners and to gain insight into the cellular mechanisms involved with the actions of DNSP-11, a pull-down assay was performed with homogenate from isolated substantia nigra of normal young Fischer 344 rats. Cytosolic and membrane fractions were collected and incubated with biotinylated DNSP-11 for 30 minutes. Bound proteins were pulled down by strepavidin magnetic beads, extensively washed to remove non-specific binders, eluted with solubilization/rehydration buffer and separated by 2D-PAGE.
To identify these binding partners, protein bands were excised from the gels, trypsin digested, and analyzed by MALDI-TOF mass spectrometry. […]

GFRα1 = target: T2, GFRα1 (Homo sapiens, UniProt P56159); test: Pull-down assay and ELISA with GFRα1; format: binding; conditions: pull-down with biotinylated DNSP-11; supported by ELISA
T2 sequence (P56159 25-429): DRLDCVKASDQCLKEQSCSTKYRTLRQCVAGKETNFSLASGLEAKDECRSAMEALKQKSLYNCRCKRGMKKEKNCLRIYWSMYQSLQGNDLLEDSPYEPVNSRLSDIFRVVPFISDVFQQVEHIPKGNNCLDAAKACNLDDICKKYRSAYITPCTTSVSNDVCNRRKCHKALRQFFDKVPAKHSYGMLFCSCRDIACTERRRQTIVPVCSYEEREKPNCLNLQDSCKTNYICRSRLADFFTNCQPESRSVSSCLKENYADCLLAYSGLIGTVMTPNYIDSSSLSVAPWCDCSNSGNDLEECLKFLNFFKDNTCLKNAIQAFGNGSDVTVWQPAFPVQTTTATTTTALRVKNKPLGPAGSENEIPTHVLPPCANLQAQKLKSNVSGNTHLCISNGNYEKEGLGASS
Procedure: Specifically, a solution of 25 μL GFRα1 (1 mg/mL) was incubated with 50 μL of Dynabeads® (Invitrogen) in wash and bind buffer (0.1 M sodium phosphate, pH 8.2, 0.01% ^Tween® 20) for 10 minutes at room temperature. The beads were then washed three times in 100 μl, of wash and bind buffer. 2 μg of GDNF was added and incubated for 1 hour at 4° C. 25 μL GFRα1 (1 mg/mL) was incubated with 40 μg of biotinylated DNSP-11 (bDNSP-11) for 1 hour at 4° C. They were then added to 50 μL of hydrophilic streptavidin magnetic beads (New England Biolabs) and incubated for an hour at 4° C.
Moreover, the absence of interaction between GFRα1 with DNSP-11 is supported by ELISA.

MN9D dopaminergic cells = test: Caspase-3 activity assay, protection against 6-OHDA toxicity; format: cell-based; conditions: 1 ng/mL for 1 hour before 100 μM 6-OHDA for 15 min; at 3 h
Procedure: MN9D Cell Cultures: The MN9D cell line has been described by Choi (1991) Brain Res. 552:67-76 and was a gift from Michael Zigmond. Cells were cultured in DMEM supplemented with 10% Fetal Bovine Serum (FBS, Hyclone), 50 U/mL penicillin and streptomycin. For experiments, the cells were plated on 24-well poly-D-lysine in DMEM with 1% (v/v) penicillin-streptomycin. The cells were grown at 37° C. in 5% CO2.
Caspase-3 Activity Assay in MN9D Cells: MN9D cells were plated to 100,000 cells/well. Cell cultures were exposed to DNSP-11 (1 ng/mL) or buffer for 1 hour prior to 15 min 100 μM 6-OHDA exposure. Caspase-3 activity was monitored after 3 hours by fluorescence (excitation/emission 496/520 nm) using the Enz Chek Caspase-3 kit. Protein levels of lysed cells were measured by BCA assay (BioRad) and normalized for every experiment. Data expressed as % control and repeated a minimum of 3 times.
To evaluate DNSP-11's neuroprotective properties, DNSP-11 was compared to GDNF in its protection against 6-OHDA-induced toxicity in the dopaminergic cell line, MN9D. MN9D dopaminergic cells were incubated for 1 hour with either citrate buffer (control), 1 ng/mL of DNSP-11 or GDNF prior to 100 μM 6-OHDA exposure for 15 min. Data are +SD, one-way ANOVA with Tukey's post hoc analysis, *p<0.05, **p<0.01, ***p<0.001 vs. control; #p<0.05, ##p<0.01, ###p<0.001 vs. 6-OHDA.

T1 sequence (P04797 whole entry): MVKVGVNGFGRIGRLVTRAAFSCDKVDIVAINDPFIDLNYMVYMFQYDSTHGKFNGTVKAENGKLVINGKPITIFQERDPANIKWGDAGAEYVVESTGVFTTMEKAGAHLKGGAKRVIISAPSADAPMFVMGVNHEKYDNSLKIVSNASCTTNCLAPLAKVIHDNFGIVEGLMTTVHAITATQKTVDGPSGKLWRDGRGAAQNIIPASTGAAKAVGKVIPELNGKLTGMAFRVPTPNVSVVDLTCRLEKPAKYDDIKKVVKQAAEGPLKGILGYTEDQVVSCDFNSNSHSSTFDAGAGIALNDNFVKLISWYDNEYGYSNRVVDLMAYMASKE

## PPEAPAEDRSL-NH2 [DNSP-11, PPEAPAEDRSL-amide]
[1]; biotinylated DNSP-11, substantia nigra fractions, confirmed with pure GAPDH
  GAPDH as binding partner in pull-down: identified
[1]; cytosolic and membrane fractions, preliminary studies
  number of bound proteins identified: approximately 20
GFRα1
  interaction with GFRα1: do not interact
MN9D dopaminergic cells
  caspase-3 activity: significant reduction
